This is an account of results in ChEMBL document CHEMBL1201862, “PubChem BioAssay data set” (2004).

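96-well plates; 48 h exposure; 5 concentrations. Endpoints by linear interpolation between flanking doses. Not reached: highest tested concentration assigned. Here, GI50 denotes the concentration required for 50% inhibition of growth.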 Calls of active or inactive are those of the source. No stated cut-off is given here; in the data, active = GI50 up to about 1.1 µM and inactive = higher.

Among the test systems are A549; CAKI-1; DU-145; EKVX; HCC 2998; HOP-62; HT-29; Hs-578T; K562; MDA-MB-231; NCI-H522; OVCAR-3; OVCAR-4; OVCAR-8; PC-3; RPMI-8226; RXF 393; SF-539; SK-MEL-2; SR.
Test in all cases: NCI-60 cell line screen, 48 h

Turning to `Cc1cc(C)n(C(=O)CSc2nc3ccc(I)cc3c(=O)n2Cc2ccccc2)n1`, the GI50 with A549 was 41 µM (inactive); with CAKI-1, 4.63 µM (inactive); in the assay on DU-145, 42 µM (inactive); with EKVX, 24 µM (inactive); in the assay on HCC 2998, 68.4 µM (inactive); in the assay with HOP-62, 31.9 µM (inactive). Further, the GI50 in the assay on HT-29 is > 100 µM (inactive); in the assay with Hs-578T it was 20 µM (inactive); in the assay with K562 it was > 100 µM (inactive); in the assay with MDA-MB-231, 23.3 µM (inactive); with NCI-H522, 20.1 µM (inactive); with OVCAR-3 it was 58.6 µM (inactive). The GI50 was 35.1 µM (inactive) with OVCAR-4; 24.9 µM (inactive) in the assay on OVCAR-8; 22.1 µM (inactive) in the assay with PC-3; > 100 µM (inactive) in the assay on RPMI-8226; 26.9 µM (inactive) in the assay with RXF 393; 86.9 µM (inactive) in the assay on SF-539. Moreover, the GI50 in the assay on SK-MEL-2 was 47.4 µM (inactive); in the assay with SR, > 100 µM (inactive).
As to `CSC1=C(C#N)C(=O)N(c2ccc(C)cc2)C(=O)C1C#N` (stereo unspecified), the GI50 with A549 is > 100 µM (inactive); in the assay on CAKI-1 it was 30.9 µM (inactive); in the assay on DU-145 it was > 100 µM (inactive); in the assay with EKVX, > 100 µM (inactive); in the assay on HCC 2998 it was > 100 µM (inactive); with HOP-62, > 100 µM (inactive). Also, the GI50 in the assay on HT-29 was > 100 µM (inactive); in the assay with Hs-578T, 28.6 µM (inactive); in the assay with K562, > 100 µM (inactive); in the assay with MDA-MB-231, > 100 µM (inactive); with NCI-H522, 29.7 µM (inactive); in the assay with OVCAR-3, > 100 µM (inactive). Moreover, the GI50 with OVCAR-4, in the assay with PC-3, with RPMI-8226, with RXF 393, in the assay with SF-539 and in the assay on SK-MEL-2 was > 100 µM (inactive) each time. Also, the GI50 in the assay with SR is > 100 µM (inactive).
With `C=C(C)C1CC/C(C)=C/CCC2(C)OC2CC/C(CO)=C\C1O` (stereo unspecified), the GI50 with A549 is > 100 µM (inactive); in the assay with CAKI-1, > 100 µM (inactive); with DU-145, > 100 µM (inactive); in the assay with EKVX it was 91.4 µM (inactive); in the assay on HCC 2998, > 100 µM (inactive); in the assay on HOP-62, > 100 µM (inactive). The GI50 is > 100 µM (inactive) in the assay with HT-29; 15.7 µM (inactive) in the assay with Hs-578T; 42 µM (inactive) in the assay with K562; > 100 µM (inactive) in the assay on MDA-MB-231; > 100 µM (inactive) with OVCAR-3; > 100 µM (inactive) in the assay with OVCAR-4. The GI50 was > 100 µM (inactive) in the assay with OVCAR-8; 64.3 µM (inactive) in the assay on PC-3; 42.4 µM (inactive) in the assay on RPMI-8226; > 100 µM (inactive) in the assay with RXF 393; 67 µM (inactive) in the assay with SF-539; > 100 µM (inactive) with SK-MEL-2. The GI50 in the assay on SR was 36.9 µM (inactive).
For `OCCCNCc1ccccn1`, the GI50 in the assay on A549, in the assay on CAKI-1, with DU-145, with EKVX, with HOP-62 and in the assay with HT-29 was > 100 µM (inactive) in each case. The GI50 in the assay with Hs-578T, in the assay with K562, with MDA-MB-231, in the assay with NCI-H522, with OVCAR-3 and in the assay with OVCAR-4 was > 100 µM (inactive) each time. In addition, the GI50 with OVCAR-8, in the assay on PC-3, with RPMI-8226, in the assay with RXF 393, in the assay with SF-539 and in the assay on SK-MEL-2 was > 100 µM (inactive) each time. Also, the GI50 with SR is > 100 µM (inactive).
As to `c1ccc2c(c1)ncn2C1CCCCO1` (stereo unspecified), the GI50 with A549, in the assay on DU-145, in the assay on EKVX, with HCC 2998, with HOP-62 and in the assay with HT-29 was > 100 µM (inactive) throughout. Moreover, the GI50 in the assay with Hs-578T, with K562, with MDA-MB-231, with NCI-H522, in the assay with OVCAR-3 and with OVCAR-4 was > 100 µM (inactive) in each case. Besides, the GI50 with OVCAR-8, in the assay with PC-3, with RPMI-8226, in the assay on RXF 393, in the assay with SF-539 and with SK-MEL-2 was > 100 µM (inactive) throughout. The GI50 with SR was > 100 µM (inactive).
Take `Cc1cc(C)n(CN(Cn2nc(C)cc2C)c2ccc(N(Cn3nc(C)cc3C)Cn3nc(C)cc3C)cc2)n1`: the GI50 with A549 was 28 µM (inactive); in the assay with CAKI-1, 26.1 µM (inactive); with DU-145, 25.9 µM (inactive); in the assay with EKVX it was 26.9 µM (inactive); in the assay on HOP-62, 25.8 µM (inactive); in the assay on HT-29, 21.9 µM (inactive). The GI50 with Hs-578T is 18.2 µM (inactive); in the assay with K562, 18.7 µM (inactive); in the assay with MDA-MB-231, 45.7 µM (inactive); with NCI-H522 it was 20.2 µM (inactive); in the assay with OVCAR-3, 25.5 µM (inactive); in the assay on OVCAR-4, 17.2 µM (inactive). The GI50 in the assay with OVCAR-8 was 27.4 µM (inactive); with PC-3 it was 23.7 µM (inactive); in the assay on RPMI-8226 it was 13.4 µM (inactive); in the assay on RXF 393, 20 µM (inactive); in the assay on SF-539, 18.1 µM (inactive); in the assay with SK-MEL-2, 23.1 µM (inactive). The GI50 with SR was 30.9 µM (inactive).
`COc1ccc(Cn2c(=O)c(OC)c(C)c3cc4ccccc4cc32)cc1`: the GI50 was 34.4 µM (inactive) in the assay on A549; 37.3 µM (inactive) with CAKI-1; 35.2 µM (inactive) in the assay on DU-145; 6.55 µM (inactive) in the assay with EKVX; 29 µM (inactive) in the assay with HCC 2998; 45.6 µM (inactive) in the assay with HOP-62. For the same compound, the GI50 is 31.4 µM (inactive) with HT-29; 40.9 µM (inactive) in the assay on Hs-578T; 28.3 µM (inactive) in the assay with K562; 22.7 µM (inactive) with MDA-MB-231; 21.4 µM (inactive) with NCI-H522; 19.9 µM (inactive) in the assay with OVCAR-3. The GI50 in the assay on OVCAR-4 is 20.2 µM (inactive); with OVCAR-8 it was 27.9 µM (inactive); in the assay on PC-3, 16.1 µM (inactive); with RXF 393, 34.4 µM (inactive); with SF-539, 32.7 µM (inactive); with SK-MEL-2, 17.2 µM (inactive). In addition, the GI50 in the assay with SR was 21.3 µM (inactive).
With `CSc1nc(SC)c2c(CO)c(Br)n(Cc3ccccc3)c2n1`, the GI50 was 29.8 µM (inactive) in the assay with A549; 10 µM (inactive) in the assay with CAKI-1; 25.9 µM (inactive) in the assay on DU-145; 29.2 µM (inactive) in the assay with EKVX; 43.3 µM (inactive) in the assay with HCC 2998; 27 µM (inactive) with HOP-62. The GI50 with HT-29 is 33.8 µM (inactive); in the assay with Hs-578T, 19.1 µM (inactive); with MDA-MB-231 it was 17.7 µM (inactive); in the assay with NCI-H522, 14.2 µM (inactive); with OVCAR-3, 29.5 µM (inactive); in the assay with OVCAR-4 it was 16.1 µM (inactive). Besides, the GI50 in the assay with OVCAR-8 is 18 µM (inactive); in the assay on PC-3, 43.1 µM (inactive); in the assay with RPMI-8226 it was 92.9 µM (inactive); in the assay with RXF 393, 28 µM (inactive); in the assay on SF-539, 12.2 µM (inactive); in the assay on SK-MEL-2, 25.7 µM (inactive). The GI50 in the assay with SR was > 100 µM (inactive).
In the case of `C/C(=N/NC(=S)N1CCCCCC1)c1cccc(/C(C)=N\NC(=S)N2CCCCCC2)n1`, the GI50 is 2.07 µM (inactive) in the assay on A549; 2.29 µM (inactive) with DU-145; 3.13 µM (inactive) with EKVX; 2.27 µM (inactive) in the assay with HCC 2998; 1.89 µM (inactive) with HOP-62; 2.16 µM (inactive) in the assay on HT-29. Besides, the GI50 in the assay with Hs-578T is 5.2 µM (inactive); in the assay with K562 it was 2.45 µM (inactive); with MDA-MB-231, 1.7 µM (inactive); in the assay on NCI-H522 it was 2.62 µM (inactive); with OVCAR-3 it was 1.01 µM (active); in the assay with OVCAR-4, 1.01 µM (active). Moreover, the GI50 is 1.55 µM (inactive) with OVCAR-8; 1.64 µM (inactive) in the assay with PC-3; 1.91 µM (inactive) in the assay on RPMI-8226; 1.6 µM (inactive) with RXF 393; 1.56 µM (inactive) in the assay on SF-539; 1.67 µM (inactive) in the assay on SK-MEL-2. Further, the GI50 with SR is 2.38 µM (inactive).
With `C1=N/CCNCCNCC/N=C/c2ccccc2OCc2cccc(n2)COc2ccccc2/1`, the GI50 is > 100 µM (inactive) with A549; > 100 µM (inactive) in the assay on CAKI-1; 56.9 µM (inactive) in the assay with DU-145; > 100 µM (inactive) in the assay on EKVX; 35.2 µM (inactive) in the assay with HOP-62; 25.6 µM (inactive) in the assay with HT-29. Also, the GI50 is 55.3 µM (inactive) in the assay on Hs-578T; 24.7 µM (inactive) in the assay with K562; 57.9 µM (inactive) in the assay with MDA-MB-231; 37.8 µM (inactive) in the assay with NCI-H522; 30.1 µM (inactive) with OVCAR-3; 47 µM (inactive) with OVCAR-4. The GI50 in the assay with OVCAR-8 is 28.6 µM (inactive); with PC-3, 34 µM (inactive); with RPMI-8226 it was 28.4 µM (inactive); in the assay with RXF 393, 30.3 µM (inactive); in the assay on SF-539, 26.1 µM (inactive); in the assay on SK-MEL-2 it was > 100 µM (inactive). In the assay with SR, the GI50 was 19.5 µM (inactive).
